Data: US20160237059A1, “HETEROCYCLIC SUBSTITUTED TRIFLUOROMETHYL PYRIMIDINONES AND THEIR USE” (BAYER PHARMA AKTIENGESELLSCHAFT, priority 2013, published 2016)
pIC50: −log10 of the molar value.

Key:
Type in all cases: cell-based
murine CCR2 [1] = biological target: T1, murine CCR2 (Mus musculus, UniProt P51683); test: Functional β-arrestin recruiting test with murine MCP-1 (B-2b); settings: U2OS β-arrestin cell line transfected with murine CCR2; agonist murine MCP-1; in some cases means of several determinations
T1 construct: host or cells: U2OS β-arrestin cell line
T1 sequence (P51683 whole entry): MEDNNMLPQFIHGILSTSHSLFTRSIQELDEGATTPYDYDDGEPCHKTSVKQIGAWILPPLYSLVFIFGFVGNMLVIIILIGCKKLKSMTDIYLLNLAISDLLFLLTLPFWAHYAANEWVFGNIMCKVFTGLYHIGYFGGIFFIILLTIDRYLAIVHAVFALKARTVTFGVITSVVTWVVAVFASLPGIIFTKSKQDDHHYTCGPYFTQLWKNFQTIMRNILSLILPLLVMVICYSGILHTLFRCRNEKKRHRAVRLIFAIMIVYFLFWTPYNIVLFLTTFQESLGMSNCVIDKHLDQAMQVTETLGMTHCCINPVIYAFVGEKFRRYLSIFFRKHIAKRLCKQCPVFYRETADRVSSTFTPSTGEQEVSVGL
Procedure, shortened: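 In a PathHunter β-galactosidase complementation assay, U2OS cells expressing murine CCR2 were preincubated 10 min with compound (10-point, 1:3.16 dilutions), then challenged with murine MCP-1 at its predetermined EC50 for 90 min at 37 °C. Luminescence was read after 60 min, and IC50 was fitted with a 4-parameter Hill function.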

human CCR2 = biological target: T2, human CCR2 (Homo sapiens, UniProt P41597); test: Functional Ca2+ release test (B-1); settings: Chem-1 cell line transfected with human CCR2; 50% inhibition of the MCP-1 effect, MCP-1 at EC50 (about 5 nM); in some cases means of several determinations
T2 construct: host or cells: Chem-1 cell line
T2 sequence (P41597 1-360 isoform P41597-2): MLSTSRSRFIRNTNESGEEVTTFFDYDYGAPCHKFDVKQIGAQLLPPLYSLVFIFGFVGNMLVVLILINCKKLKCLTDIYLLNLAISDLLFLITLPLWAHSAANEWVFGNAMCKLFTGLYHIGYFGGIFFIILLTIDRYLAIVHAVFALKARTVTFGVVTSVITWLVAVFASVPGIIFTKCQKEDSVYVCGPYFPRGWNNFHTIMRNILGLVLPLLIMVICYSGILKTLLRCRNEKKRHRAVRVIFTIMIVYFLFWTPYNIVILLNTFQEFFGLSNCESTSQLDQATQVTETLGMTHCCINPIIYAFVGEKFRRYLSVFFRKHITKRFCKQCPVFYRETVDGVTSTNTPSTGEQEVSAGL
Procedure, shortened: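 Chem-1 cells expressing human CCR2, loaded with Fluo-4 for 60 min at 37° C, were preincubated 10 min with compound (10-point, 1:3.16 dilutions), then stimulated with MCP-1 at its predetermined EC50 (about 5 nM). Ca2+ release was monitored for 120 s. IC50 came from a 4-parameter Hill fit.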

murine CCR2 [2] = biological target: T1, murine CCR2; test: Functional β-arrestin recruiting test with human MCP-1 (B-2a); settings: U2OS β-arrestin cell line transfected with murine CCR2; agonist human MCP-1 at EC50 (about 3 nM); in some cases means of several determinations
Procedure, shortened: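 Antagonist mode in U2OS cells expressing murine CCR2, read by PathHunter β-galactosidase complementation luminescence. Cells pre-incubated 10 min with 10-point compound dilutions (1:3.16 steps), then stimulated with human MCP-1 at its EC50 (usually about 3 nM) for 90 min at 37° C.; IC50 from 4-parameter logistic fit.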

Compound: O=c1[nH]c(-c2ncon2)nc(C(F)(F)F)c1Oc1ccc(Cl)c(C(F)(F)F)c1 [Example 78, 5-[4-Chloro-3-(trifluoromethyl)phenoxy]-2-(1,2,4-oxadiazol-3-yl)-6-(trifluoromethyl)pyrimidin-4(3H)-one]
- pIC50 (murine CCR2 [1]): 7.30
- pIC50 (human CCR2): 8.43
- pIC50 (murine CCR2 [2]): 7.80

Compound: Nc1cnn(-c2nc(C(F)(F)F)c(Oc3ccc(Cl)c(Cl)c3)c(=O)[nH]2)c1 [Example 47, 2-(4-Amino-1H-pyrazol-1-yl)-5-(3,4-dichlorophenoxy)-6-(trifluoromethyl)pyrimidin-4(3H)-one]
- pIC50 (murine CCR2 [1]): 7.02
- pIC50 (human CCR2): 9.00
- pIC50 (murine CCR2 [2]): 8.44

Compound: O=c1[nH]c(-c2ncccc2F)nc(C(F)(F)F)c1Cc1ccc(Cl)c(Cl)c1 [Example 17, 5-(3,4-dichlorobenzyl)-2-(3-fluoropyridin-2-yl)-6-(trifluoromethyl)pyrimidin-4(3H)-one]
- pIC50 (murine CCR2 [1]): 6.72
- pIC50 (human CCR2): 8.85
- pIC50 (murine CCR2 [2]): 7.37

Compound: O=c1[nH]c(-c2ncccc2Cl)nc(C(F)(F)F)c1Oc1ccc(F)c(Cl)c1 [Example 14, 5-(3-chloro-4-fluorophenoxy)-2-(3-chloropyridin-2-yl)-6-(trifluoromethyl)pyrimidin-4(3H)-one]
- pIC50 (murine CCR2 [1]): 6.59
- pIC50 (human CCR2): 7.96
- pIC50 (murine CCR2 [2]): 7.60

Compound: O=c1[nH]c(-c2ncccc2Cl)nc(C(F)(F)F)c1Cc1ccc(Cl)c(Cl)c1 [Example 16, 2-(3-chloropyridin-2-yl)-5-(3,4-dichlorobenzyl)-6-(trifluoromethyl)pyrimidin-4(3H)-one]
- pIC50 (murine CCR2 [1]): 6.51
- pIC50 (human CCR2): 8.68
- pIC50 (murine CCR2 [2]): 7.68

Compound: O=c1[nH]c(-n2cccn2)nc(C(F)(F)F)c1Cc1ccc(Cl)c(C(F)(F)F)c1 [Example 71, 5-[4-chloro-3-(trifluoromethyl)benzyl]-2-(1H-pyrazol-1-yl)-6-(trifluoromethyl)pyrimidin-4(3H)-one]
- pIC50 (murine CCR2 [1]): 5.97
- pIC50 (human CCR2): 8.52
- pIC50 (murine CCR2 [2]): 7.24

Compound: O=c1[nH]c(-c2ncccc2Cl)nc(C(F)(F)F)c1Cc1ccc(Cl)c(C(F)(F)F)c1 [Example 35, 2-(3-chloropyridin-2-yl)-5-[4-chloro-3-(trifluoromethyl)benzyl]-6-(trifluoromethyl)pyrimidin-4(3H)-one]
- pIC50 (murine CCR2 [1]): 6.80
- pIC50 (human CCR2): 8.82
- pIC50 (murine CCR2 [2]): 7.46

Compound: COc1cccnc1-c1nc(C(F)(F)F)c(Oc2ccc(Cl)c(Cl)c2)c(=O)[nH]1 [Example 24, 5-(3,4-dichlorophenoxy)-2-(3-methoxypyridin-2-yl)-6-(trifluoromethyl)pyrimidin-4(3H)-one]
- pIC50 (murine CCR2 [1]): 7.27
- pIC50 (human CCR2): 9.40
- pIC50 (murine CCR2 [2]): 8.09

Compound: O=c1[nH]c(-c2n[nH]cc2Cl)nc(C(F)(F)F)c1Cc1ccc(Cl)c(C(F)(F)F)c1 [Example 76, 2-(4-chloro-1H-pyrazol-3-yl)-5-[4-chloro-3-(trifluoromethyl)benzyl]-6-(trifluoromethyl)pyrimidin-4(3H)-one]
- pIC50 (murine CCR2 [1]): 6.95
- pIC50 (human CCR2): 8.82
- pIC50 (murine CCR2 [2]): 7.59

Compound: Cc1ccc(-c2nc(C(F)(F)F)c(Oc3ccc(Cl)c(Cl)c3)c(=O)[nH]2)nc1 [Example 7, 5-(3,4-dichlorophenoxy)-2-(5-methylpyridin-2-yl)-6-(trifluoromethyl)pyrimidin-4(3H)-one]
- pIC50 (murine CCR2 [1]): 6.36
- pIC50 (human CCR2): 8.66
- pIC50 (murine CCR2 [2]): 6.92

Compound: O=c1[nH]c(-n2cccn2)nc(C(F)(F)F)c1Oc1ccc(Cl)c(Cl)c1 [Example 51, 5-(3,4-dichlorophenoxy)-2-(1H-pyrazol-1-yl)-6-(trifluoromethyl)pyrimidin-4(3H)-one]
- pIC50 (murine CCR2 [1]): 6.95
- pIC50 (human CCR2): 9.30
- pIC50 (murine CCR2 [2]): 7.70

Compound: Cc1cc(-c2nc(C(F)(F)F)c(Oc3ccc(Cl)c(Cl)c3)c(=O)[nH]2)nn1C [Example 54, 5-(3,4-dichlorophenoxy)-2-(1,5-dimethyl-1H-pyrazol-3-yl)-6-(trifluoromethyl)pyrimidin-4(3H)-one]
- pIC50 (murine CCR2 [1]): 6.34
- pIC50 (human CCR2): 8.55
- pIC50 (murine CCR2 [2]): 7.29

Compound: O=c1[nH]c(-c2ncccc2F)nc(C(F)(F)F)c1Oc1ccc(Cl)c(Cl)c1 [Example 15, 5-(3,4-dichlorophenoxy)-2-(3-fluoropyridin-2-yl)-6-(trifluoromethyl)pyrimidin-4(3H)-one]
- pIC50 (murine CCR2 [1]): 6.84
- pIC50 (human CCR2): 8.70
- pIC50 (murine CCR2 [2]): 7.52

Compound: Cn1cnc(-c2nc(C(F)(F)F)c(Oc3ccc(Cl)c(C(F)(F)F)c3)c(=O)[nH]2)c1 [Example 59, 5-[4-chloro-3-(trifluoromethyl)phenoxy]-2-(1-methyl-1H-imidazol-4-yl)-6-(trifluoromethyl)pyrimidin-4(3H)-one]
- pIC50 (murine CCR2 [1]): 6.97
- pIC50 (human CCR2): 9.22
- pIC50 (murine CCR2 [2]): 7.92

Compound: O=c1[nH]c(-n2cccn2)nc(C(F)(F)F)c1Cc1ccc(Cl)c(Cl)c1 [Example 53, 5-(3,4-dichlorobenzyl)-2-(1H-pyrazol-1-yl)-6-(trifluoromethyl)pyrimidin-4(3H)-one]
- pIC50 (murine CCR2 [1]): 6.36
- pIC50 (human CCR2): 8.74
- pIC50 (murine CCR2 [2]): 7.17

Compound: O=c1[nH]c(-c2n[nH]cc2Cl)nc(C(F)(F)F)c1Oc1ccc(Cl)c(Cl)c1 [Example 74, 2-(4-chloro-1H-pyrazol-3-yl)-5-(3,4-dichlorophenoxy)-6-(trifluoromethyl)pyrimidin-4(3H)-one]
- pIC50 (murine CCR2 [1]): 7.23
- pIC50 (human CCR2): 8.96
- pIC50 (murine CCR2 [2]): 8.54

Compound: O=c1[nH]c(-c2ncccc2F)nc(C(F)(F)F)c1Oc1ccc(Cl)c(C(F)(F)F)c1 [Example 39, 5-[4-chloro-3-(trifluoromethyl)phenoxy]-2-(3-fluoropyridin-2-yl)-6-(trifluoromethyl)pyrimidin-4(3H)-one]
- pIC50 (murine CCR2 [1]): 7.30
- pIC50 (human CCR2): 9.05
- pIC50 (murine CCR2 [2]): 7.70

Compound: O=c1[nH]c(Cc2ccno2)nc(C(F)(F)F)c1Oc1ccc(Cl)c(Cl)c1 [Example 95, 5-(3,4-dichlorophenoxy)-2-(1,2-oxazol-5-ylmethyl)-6-(trifluoromethyl)pyrimidin-4(3H)-one]
- pIC50 (murine CCR2 [1]): 6.35
- pIC50 (human CCR2): 7.57
- pIC50 (murine CCR2 [2]): 7.11

Compound: O=c1[nH]c(-c2n[nH]cc2Cl)nc(C(F)(F)F)c1Oc1ccc(Cl)c(C(F)(F)F)c1 [Example 77, 2-(4-chloro-1H-pyrazol-3-yl)-5-[4-chloro-3-(trifluoromethyl)phenoxy]-6-(trifluoromethyl)pyrimidin-4(3H)-one]
- pIC50 (murine CCR2 [1]): 7.74
- pIC50 (human CCR2): 8.70
- pIC50 (murine CCR2 [2]): 8.20
